Holding throughout (test): ≥ marks a high value that may be exact or a test limit, other limits are often not marked, values filed in µg/mL are converted to µM
Experiment [1] relates to Corynebacterium glutamicum ATCC 13032.
Experiment [2] deals with Pseudomonas aeruginosa ATCC 27853.
Experiment [3] concerns Candida albicans ATCC 10231.
Experiment [4] has as its system Escherichia coli ATCC 25922.
Experiment [5] has as its system Staphylococcus aureus ATCC 9144.
For experiment [6], the system named is Aureobasidium pullulans.
Experiment [7] deals with Staphylococcus aureus ATCC 6538.
Experiment [8] relates to Micrococcus luteus ATCC 9341.
Experiment [9] deals with Pseudomonas aeruginosa ATCC 9027.
The test system of experiment [10] is Escherichia coli ATCC 2592.
Experiment [11] deals with Candida albicans ATCC 36232.
The subject of experiment [12] is Pseudomonas aeruginosa 919.
The test system of experiment [13] is Pseudomonas aeruginosa 910.
For experiment [14], the system named is Pseudomonas aeruginosa 253.
Experiment [15] has as its system Pseudomonas aeruginosa PAO1.
The test system of experiment [16] is Escherichia coli UB1005.
The subject of experiment [17] is Salmonella enterica subsp. enterica serovar Typhimurium C77-31.
In experiment [18] the test system is Staphylococcus aureus ATCC 25923.
The subject of experiment [19] is Salmonella enterica subsp. enterica serovar Typhimurium ATCC 14028.
The test system of experiment [20] is Staphylococcus aureus ATCC 29213.
Experiment [21] deals with Staphylococcus epidermidis ATCC 12228.
For experiment [22], the system named is Salmonella enterica subsp. enterica serovar Typhi CMCC 50071.
Experiment [23] deals with Salmonella enterica subsp. enterica serovar Pullorum C79-13.
Experiment [24] concerns Enterococcus faecalis.
Experiment [25] has as its system Escherichia coli.
Experiment [26] deals with Bacillus cereus.
Experiment [27] has as its system Micrococcus luteus.
Experiment [28] has as its system Pasteurella multocida.
Experiment [29] relates to Staphylococcus epidermidis.
The test system of experiment [30] is Streptococcus uberis.
Experiment [31] has as its system Pseudomonas aeruginosa.
For experiment [32], the system named is Leuconostoc lactis.
Experiment [33] has as its system Listeria innocua.
Experiment [34] has as its system Enterobacter cloacae.
Experiment [35] deals with Enterococcus faecalis ATCC 29212.
Experiment [36] concerns Candida albicans.
The test system of experiment [37] is Salmonella enterica serovar Typhimurium.
Experiment [38] deals with Pseudomonas aeruginosa H103.
Experiment [39] deals with Pseudomonas aeruginosa K799.
The subject of experiment [40] is Listeria monocytogenes.
The subject of experiment [41] is Salmonella enterica subsp. enterica serovar Typhimurium ATCC 14028s.

The source of these data is DBAASP.

SMILES strings stand for the structures. In brackets after ≈: the same amount, converted by molar mass. Where only a bound is given, the exact number is not on record here.

Turning to `CC(C)[C@H](NC(=O)[C@H](CCCCN)NC(=O)[C@H](C)NC(=O)[C@@H](NC(=O)[C@@H](NC(=O)[C@H](CCCN=C(N)N)NC(=O)[C@H](CCCN=C(N)N)NC(=O)[C@H](Cc1c[nH]c2ccccc12)NC(=O)[C@H](Cc1c[nH]c2ccccc12)NC(=O)[C@H](C)N)[C@@H](C)O)C(C)C)C(=O)N[C@@H](CCCN=C(N)N)C(=O)N[C@@H](CCCCN)C(N)=O` [AWWRRTVAKVRK], the minimal inhibitory concentration (MIC) – broadly, the lowest concentration that inhibits growth of the organism – is 0.8 µM (≈ 1.24 µg/mL) in [1]; 6.3 µM (≈ 9.8 µg/mL) in [2]; 25 µM (≈ 38.9 µg/mL) in [3]; 12.5 µM (≈ 19.4 µg/mL) in [4]; 25 µM (≈ 38.9 µg/mL) in [5]; at least 50 µM in experiment [6].

As to `CC(C)C[C@H](NC(=O)[C@H](CS)NC(=O)[C@H](Cc1cnc[nH]1)NC(=O)[C@H](C)NC(=O)[C@H](C)NC(=O)[C@H](CS)NC(=O)[C@H](C)NC(=O)[C@H](C)NC(=O)[C@@H](N)CC(=O)O)C(=O)N[C@@H](Cc1c[nH]c2ccccc12)C(=O)N[C@@H](CCCN=C(N)N)C(N)=O` [DAACAAHCLWR], the MIC in [7] was above 164 µM; in experiment [8] it was at least 164 µM; in experiment [9], above 164 µM; in experiment [10], at least 164 µM; in experiment [11], at least 164 µM.

With `CC[C@H](C)[C@H](NC(=O)[C@@H](N)Cc1ccccc1)C(=O)N[C@@H](CCCCN)C(=O)N[C@@H](Cc1c[nH]c2ccccc12)C(=O)N[C@@H](CCCN=C(N)N)C(=O)N[C@@H](Cc1ccccc1)C(=O)N[C@@H](CCCN=C(N)N)C(=O)N[C@@H](CCCN=C(N)N)C(=O)N[C@@H](Cc1c[nH]c2ccccc12)C(=O)N[C@@H](CCCCN)C(=O)N[C@@H](CCCCN)C(=O)N[C@@H](CCCN=C(N)N)C(=O)N[C@@H](CCCCN)C(N)=O` [FIKWRFRRWKKRK], the MIC in [12] stood at 22.6 µM (≈ 43.8 µg/mL); in experiment [13], 5.66 µM (≈ 10.9 µg/mL); in [14], 8 µM (≈ 15.5 µg/mL); in [15], 4 µM (≈ 7.74 µg/mL).

As for `NC(=O)CC[C@H](NC(=O)[C@H](Cc1c[nH]c2ccccc12)NC(=O)[C@H](CCCN=C(N)N)NC(=O)[C@H](CCCN=C(N)N)NC(=O)[C@H](Cc1c[nH]c2ccccc12)NC(=O)[C@@H](N)Cc1ccccc1)C(=O)N[C@@H](Cc1c[nH]c2ccccc12)C(=O)N[C@@H](CCCN=C(N)N)C(=O)N[C@@H](CCCN=C(N)N)C(=O)N[C@@H](CCCN=C(N)N)C(=O)N[C@@H](Cc1c[nH]c2ccccc12)C(=O)N[C@@H](Cc1ccccc1)C(N)=O` [FWRRWQWRRRWF], the minimum inhibitory concentration (MIC) is 16 µM (≈ 31.4 µg/mL) in experiment [16]; 16 µM (≈ 31.4 µg/mL) in experiment [17]; 16 µM (≈ 31.4 µg/mL) in [18]; 128 µM (≈ 252 µg/mL) in experiment [19]; above 128 µM in [20]; 8 µM (≈ 15.7 µg/mL) in [21]. The MIC in [22] was at least 128 µM; in experiment [23] it was 8 µM (≈ 15.7 µg/mL).

Take `CC[C@H](C)[C@H](NC(=O)CNC(=O)[C@H](CO)NC(=O)[C@@H](NC(=O)[C@H](CC(C)C)NC(=O)[C@H](CCC(=O)O)NC(=O)[C@H](CC(N)=O)NC(=O)[C@H](C)NC(=O)[C@H](CCCCN)NC(=O)[C@H](CCC(=O)O)NC(=O)[C@H](CCCCN)NC(=O)[C@@H](NC(=O)[C@H](CCCCN)NC(=O)[C@H](CCC(=O)O)NC(=O)[C@H](Cc1c[nH]c2ccccc12)NC(=O)[C@H](CC(C)C)NC(=O)CN)C(C)C)C(C)C)C(=O)N[C@H](C(=O)N[C@@H](CCC(=O)O)C(=O)NCC(=O)N[C@H](C(=O)N[C@@H](CCCCN)C(N)=O)C(C)C)C(C)C` [GLWEKVKEKANELVSGIVEGVK]: the MIC in experiment [24] is at least 41.4 µM; in experiment [25], above 41.4 µM; in [26] it was at least 41.4 µM; in experiment [27] it was at least 41.4 µM; in experiment [28], at least 41.4 µM; in experiment [18], above 41.4 µM. Moreover, the minimal inhibitory concentration (MIC) in experiment [29] was at least 41.4 µM; in experiment [20] it was above 41.4 µM; in experiment [30], at least 41.4 µM; in experiment [31], above 41.4 µM; in [32], at least 41.4 µM; in [33], at least 41.4 µM. In [34], this molecule had an MIC of at least 41.4 µM.

Consider `CC(C)[C@H](NC(=O)[C@H](C)NC(=O)[C@H](CCCN=C(N)N)NC(=O)[C@H](CCCN=C(N)N)NC(=O)[C@H](Cc1c[nH]c2ccccc12)NC(=O)[C@H](Cc1c[nH]c2ccccc12)NC(=O)CN)C(=O)N[C@@H](C)C(=O)N[C@@H](CCCCN)C(=O)N[C@H](C(=O)N[C@@H](CCCN=C(N)N)C(=O)N[C@@H](CCCCN)C(N)=O)C(C)C` [GWWRRAVAKVRK], for which the MIC in experiment [1] amounted to 1.6 µM (≈ 2.42 µg/mL); in experiment [2] it was 3.1 µM (≈ 4.69 µg/mL); in experiment [3], 25 µM (≈ 37.8 µg/mL); in [4], 3.1 µM (≈ 4.69 µg/mL); in [5], 12.5 µM (≈ 18.9 µg/mL); in experiment [6], 25 µM (≈ 37.8 µg/mL).

For `CC[C@H](C)[C@H](NC(=O)[C@H](CCCN=C(N)N)NC(=O)[C@H](C)NC(=O)[C@H](CC(C)C)NC(=O)[C@@H](N)CCCN=C(N)N)C(=O)N[C@H](C(=O)N[C@H](C(=O)N[C@H](C(=O)N[C@@H](CCCN=C(N)N)C(=O)N[C@@H](Cc1c[nH]c2ccccc12)C(=O)N[C@@H](C)C(=O)N[C@@H](CCCN=C(N)N)C(N)=O)[C@@H](C)CC)C(C)C)C(C)C` [RLARIVVIRWAR], the minimal inhibitory concentration (MIC) in [12] is 16 µM (≈ 24.1 µg/mL); in experiment [16], 2.65 µM (≈ 4 µg/mL); in experiment [35] it was 2.65 µM (≈ 4 µg/mL); in experiment [36], 5.3 µM (≈ 7.99 µg/mL); in experiment [37] it was 5.3 µM (≈ 7.99 µg/mL); in experiment [18] it was 5.3 µM (≈ 7.99 µg/mL). For the same molecule, the minimum inhibitory concentration (MIC) in experiment [38] is 10.6 µM (≈ 16 µg/mL); in experiment [29], 1.33 µM (≈ 2 µg/mL); in [13], 16 µM (≈ 24.1 µg/mL); in experiment [14] it was 16 µM (≈ 24.1 µg/mL); in experiment [15] it was 16 µM (≈ 24.1 µg/mL).

Regarding `CC[C@H](C)[C@H](NC(=O)[C@H](CCCN=C(N)N)NC(=O)[C@H](CO)NC(=O)[C@H](CC(C)C)NC(=O)[C@@H](N)CCCN=C(N)N)C(=O)N[C@H](C(=O)N[C@H](C(=O)N[C@H](C(=O)N[C@@H](CCCN=C(N)N)C(=O)N[C@H](C(=O)N[C@@H](CO)C(=O)N[C@@H](CCCN=C(N)N)C(N)=O)C(C)C)[C@@H](C)CC)C(C)C)C(C)C` [RLSRIVVIRVSR], the minimum inhibitory concentration (MIC) in experiment [16] came to 1.38 µM (≈ 2 µg/mL); in [35] it was 2.75 µM (≈ 4 µg/mL); in [18], 2.75 µM (≈ 4 µg/mL); in [29] it was 0.688 µM (≈ 0.999 µg/mL); in experiment [39], 11 µM (≈ 16 µg/mL); in experiment [40], 0.172 µM (≈ 0.25 µg/mL). Further, the MIC in experiment [41] turned out to be 22 µM (≈ 32 µg/mL).
